Laboratory results published in patent US9394328B2, “Crystalline dapagliflozin hydrate” (SANDOZ AG, priority 2011, dated 2016).

Method: The measurements were carried out with a Bruker D8 Advance powder X-ray diffractometer using Cu Kα radiation in the Bragg-Brentano reflection geometry. Generally, the 2θ values are accurate within an error of ±0.1-0.2°. The relative peak intensities can vary considerably for different samples of the same crystalline form because of different preferred orientations of the crystals. The samples were prepared without any special treatment other than the application of slight pressure to get a flat surface. Silicon single crystal sample holders of either 0.5 mm or 0.1 mm depth and 12 mm cavity diameter were used. The tube voltage and current were 40 kV and 40 mA, respectively. The X-ray diffractometer is equipped with a LynxEye detector. A variable divergence slight was used with a 3° window. The step size was 0.02° 20 with a step time of 37 seconds. The samples were rotated at 0.5 rps during the measurement.
Thermogravimetry coupled with Fourier Transform Infrared Spectroscopy (TG-FTIR): TG-FTIR was performed on a Netzsch Thermo-Microbalance TG 209, which is coupled to a Bruker FT-IR Spectrometer Vector 22. The measurements were carried out with aluminum crucibles with a micro pinhole under a nitrogen atmosphere and at a heating rate of 10° C./min over the range 25-250° C.
145 mg of crystalline hydrate form A according to example 4 is stored under a relative humidity of 60% (in an open container) for two weeks. Then the stored sample is investigated by PXRD and TG-FTIR.

CCOc1ccc(Cc2cc([C@@H]3O[C@H](CO)[C@@H](O)[C@H](O)[C@H]3O)ccc2Cl)cc1 [form A, dapagliflozin]
TG-FTIR mass loss attributable to loss of water (after storage at relative humidity of 60% for two weeks): about 9%
Water content in equilibrium with a water activity of about 0.6 (concluded from TG-FTIR mass loss): about 2 mol water per mol dapagliflozin
Crystalline form after storage (PXRD) (stored under a relative humidity of 60% (open container) for two weeks): form A is retained
